The results in this text go back to patent US5279956A, “Activated protein C polypeptides and anti-peptide antibodies, diagnostic methods and systems for inhibiting activated protein C” (The Scripps Research Institute, priority 1991, dated 1994).

Assay [1] deals with T1, APC (Homo sapiens, UniProt P04070).
T1 construct: begins at amino acid residue position 158 and ends at 419; The light chain is 155 amino acid residues in length; tissue Factor IX concentrate from Immuno AG, Vienna; thrombin from Enzyme Research Laboratories
Description: APC anticoagulant activity, APTT and Xa-1-stage coagulation assays (mean or both). Format: biochemical. The conditions noted are these: for inhibition at 500 µM / Inhibition of APC (%): 500 μM peptide, mean of APTT and Xa-1-stage assays, 0 = no observable effect ± 10%; for IC50: final peptide concentration at which 50% inhibition of APC activity was observed. The method, then: (§1) The effect of the synthetic peptides on APC anticoagulant activity were determined using the APTT assay in the presence of either normal citrate anticoagulated plasma (NHP) or protein S depleted plasma (PSDP). The assays were performed essentially as described. See Marlar et al., Blood, 59:1067-1072 […]; Suzuki et al., J. Biol. Chem., 258:163-168 (1983); Gruber et al., Blood, 73:639-642 (1989); Ohlin et al., Biochem., 29:644-651 (1990). NHP was purchased from George King Bio-Medical, Inc. (Overland Park, Kans.). PSDP was prepared from a normal human citrate-anticoagulated plasma pool from ten healthy donors. Protein S was immunodepleted from the NHP by immunoaffinity chromatography of NHP over an anti-protein S antibody column to form PSDP. The anti-protein S antibody column was prepared by coupling 100 mg of a monoclonal, high-affinity, calcium-independent anti-PS antibody, designated S7, to 30 ml of CNBr-activated Sepharose 4B (Pharmacia) as described in Example 2c1).
For the APTT assay, APC was prepared as described in Example 2c2). […] The concentration of the APC used in the assay was initially optimized with respect to the sensitivity of the assay towards APC-induced prolongation of clotting time compared to clotting time without APC.
(§2) Once the optimal concentration of APC was determined, peptides from Table 2 were then separately admixed for a final concentration of 500 μM with 10 nM APC in 100 μl of TBS-BSA at pH 7.4 to form peptide-APC admixtures. The resulting admixtures were maintained for seven minutes at 37° C. Separate aliquots of peptides maintained under the same conditions in the absence of APC served as controls for the inhibitory effect of synthetic peptides on APC anticoagulant activity. After the maintenance period, 100 μl of NHP and 100 μl APTT-reagent Thrombosil (Ortho Diagnostics, Raritan, N.J.) were admixed into each peptide admixture and maintained for 200 seconds at 37° C. to form a pre-coagulation admixture. In some experiments, PSDP was used in the place of NHP to determine the effect of Protein S on the assay system. Coagulation was then initiated by the admixture of 100 μl of 30 mM CaCl2 in TBS prewarmed to 37° C. to each of the pre-coagulation admixtures. The time for clot formation was measured by an Electra 700 Automatic Coagulation Timer (Medical Laboratory Automation, Inc., Mount Vernon, N.Y.). Each peptide's effect was determined in duplicate.
The synthetic peptides listed in Table 4 are presented in the same order as listed in Table 2, i.e., are reproduced from Table 2. […] For peptides at a concentration of 500 μM that inhibited at least 50% of APC anticoagulant activity, analysis of dose-response was subsequently conducted. The column in Table 4 labeled "Inhibition of APC" represents the inhibition of APC anticoagulant activity measured with 500 μM peptide.
For testing the inhibition of the synthetic peptides on APC activity described above, Xa-1-stage coagulation assays were also performed as described. See Seegers et al., Thrombosis Res., 13:233-243 (1978); Marlar et al., supra; and Walker et al., J. Biol. Chem. 265:1484-1489 (1990).

The target in assay [2] is T1, APC. Description: Activated partial thromboplastin time (APTT) coagulation assay of APC anticoagulant activity. Format: biochemical. The conditions noted are these: APTT assay in the presence of APC. Here is the method: as §1, with “2c1). Residual total protein S content in the resultant PSDP was less than 0.1% protein S as determined by quantitative immunoblotting, by solid-phase ELISA for total protein S and by electroimmunoassay.” for “2c1).”
For the APTT assay, APC was prepared as described in Example 2c2). The specific anticoagulant activity of APC was determined to be 250 Units/mg. The concentration of the APC used in the assay was initially optimized with respect to the sensitivity of the assay towards APC-induced prolongation of clotting time compared to clotting time without APC.
as §2
Additional assays were performed to compare the specificity of the inhibitory effect of peptide-(390-404) on APC anticoagulant activity. Both APTT and Xa-1-stage assays were performed with peptide-(390-404) and with the same peptide synthesized in the reverse order, peptide-(404-390), at concentrations of the peptides ranging from 0 μM to 40 μM. In APTT assays performed as described above in the presence of NHP, APC was used at a concentration of 2.5 nM. For APTT assays in the presence of PSDP, APC was used at a concentration of 5 nM. […]
Once the optimal concentration of APC was determined, anti-(390-404) was separately admixed ranging in concentration from 0.0 to 240 nM with APC in 200 μl of TBS-BSA and 30 mM CaCl2 at pH 7.4 to form an anti-(390-404)-APC immunoreaction admixture pre-maintenance solution. […]

No end group written: not given here.

A word on the inhibition: it is the share of the control response that was lost under treatment. By IC50 is commonly meant the concentration at which inhibition is half-maximal. A word on the IC90: it is the concentration at which the effect reaches the 90% level.

T1 sequence (P04070 212-461): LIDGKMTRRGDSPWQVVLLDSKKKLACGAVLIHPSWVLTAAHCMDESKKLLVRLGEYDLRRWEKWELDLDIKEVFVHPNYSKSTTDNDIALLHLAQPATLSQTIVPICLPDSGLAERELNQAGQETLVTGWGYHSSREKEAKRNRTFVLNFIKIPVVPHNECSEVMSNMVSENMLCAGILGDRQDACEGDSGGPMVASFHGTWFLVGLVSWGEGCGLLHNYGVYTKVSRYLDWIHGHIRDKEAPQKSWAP
T1 sequence (P04070 43-197): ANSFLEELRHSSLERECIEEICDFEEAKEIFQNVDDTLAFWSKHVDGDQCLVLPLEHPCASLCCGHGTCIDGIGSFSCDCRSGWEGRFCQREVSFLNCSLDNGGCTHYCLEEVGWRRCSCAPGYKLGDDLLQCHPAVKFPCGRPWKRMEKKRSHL

With “AGILGDRQDA-NH2 [peptide-(346-355), AGILGDRQDA]”, 500 µM produced 0% inhibition against APC [1].
Turning to DESKKLLVRLGEYDL [peptide-(214-230)], in the assay with APC [1], the “Inhibition of APC (%)” value is 0%.
With “DIKEVFVHPNYSKST-NH2 [(239-253), DIKEVFVHPNYSKST]”, the inhibition at 500 µM against APC [1] is 20%.
The same measure, in the same setting: in the case of “DRQDASEGDSGGPMV-NH2 [peptide-(351-365), DRQDA -SEGDSGGPMV]” it was 0%.
The same measure, in the same setting: in the case of “DTEDQEDQVDPRLID-NH2 [peptide-(158-172), DTEDQEDQVDPRLID]” it was 0%; in that of “ELDLDIKEVFVHPNY-NH2 [peptide-(235-249), ELDLDIKEVFVHPNY]”, 0%; in that of “EVMSNMVSENMLSAG-NH2 [peptide-(333-347), EVMSNMVSENML -SAG]”, 0%.
At APC [1], “GEYDLRRWEKWELDL-NH2 [peptide-(224-238), GEYDLRRWEKWELDL]” registered an inhibition at 500 µM of 0%.
Same read-out and setting: with “GHIRDKEAPQKSWAP-NH2 [peptide-(405-419), GHIRDKEAPQKSWAP]” the figure was 0%.
As for GTWFLVLVSWGEGC [peptide-(370-384)], the “Inhibition of APC (%)” value in the assay with APC [1] is listed as 0%.
Consider “HIWDLYRSVKTYVGY-NH2 [peptide-(404-390), HIWDLYRSVKTYVGY]”, for which the inhibition at 500 µM against APC [1] is 0%.
In the case of “HPSWVLTAAHSMDES-NH2 [peptide-(202-216), HPSWVLTAAH -SMDES]”, on APC [1], the inhibition at 500 µM was 0%.
“HSSREKEAKRNRTFV-NH2 [peptide-(303-317), HSSREKEAKRNRTFV]” registered an inhibition at 500 µM at APC [1] of 0%.
Consider “IVPISLPDSGLAERE-NH2 [peptide-(273-287), IVPI -SLPDSGLAERE]”, for which 500 µM produced 0% inhibition against APC [1].
Take “LDSKKKLASGAVLIH-NH2 [peptide-(188-202), LDSKKKLA -SGAVLIH]”: the inhibition at 500 µM on APC [1] amounted to 0%.
As to “LIDGKMTRRGDSPWQ-NH2 [peptide-(170-184), LIDGKMTRRGDSPWQ]”, at 500 µM the inhibition at APC [1] was 0%.
Turning to “LLHLAQPATLSQTIV-NH2 [peptide-(260-274), LLHLAQPATLSQTIV]”, on APC [1], at 500 µM the inhibition was 0%.
At APC [1], “LPDSGLAERELNQAG-NH2 [peptide-(278-292), LPDSGLAERELNQAG]” returned an inhibition at 500 µM of 0%.
For “MSNMVSENMLCAGI-NH2 [peptide-(335-348), MSNMVSENMLCAGI]”, the inhibition at 500 µM on APC [1] is 0%.
Same read-out and setting: in the case of “PATLSQTIVPICLP-NH2 [peptide-(266-279), PATLSQTIVPICLP]” it was 0%; in that of “PATLSQTIVPIGLPD-NH2 [peptide-(266-280) SEQ ID NO 8, PATLSQTIVPI -- GLPD]”, 0%; in that of “PATLSQTIVPISLPD-NH2 [peptide-(266-280) SEQ ID NO 7, PATLSQTIVPI -SLPD]”, 0%.
On to “QDACEGDSGGPMVA-NH2 [peptide-(353-366), QDACEGDSGGPMVA]”, for which, on APC [1], at 500 µM the inhibition was 0%.
“QETLVTGWGYHSSRE-NH2 [peptide-(293-307), QETLVTGWGYHSSRE]” yielded an inhibition at 500 µM at APC [1] of 0%.
The substance “RRWEKWELDLDIKEV-NH2 [peptide-(229-243), RRWEKWELDLDIKEV]” had an inhibition at 500 µM at APC [1] of 0%.
“SKKLLVRLGEYDLRR-NH2 [peptide-(216-230), SKKLLVRLGEYDLRR]”: at APC [1], at 500 µM the inhibition was 0%.
With SKSTTDNDIALLHLA [peptide-(250-263)], in the assay with APC [1], the “Inhibition of APC (%)” value was found to be 0%.
With “TRRGDSPWQVVLLDS-NH2 [(176-190), TRRGDSPWQVVLLDS]”, the inhibition at 500 µM at APC [1] stood at 25%.
On to “VLNFIKIPVVPHNEC-NH2 [peptide-(317-331), VLNFIKIPVVPHNEC]”, for which the IC50 on APC [2] stood at 500 µM. Moreover, at APC [1], testing at 500 µM gave an inhibition of 50% and the IC50 worked out at 500 µM.
In turn, “VLTAAHCMDESKKL-NH2 [peptide-(206-219), VLTAAHCMDESKKL]” showed an inhibition at 500 µM on APC [1] of 0%.
Turning to “VSRYLDWIHGHIRDK-NH2 [peptide-(396-410), VSRYLDWIHGHIRDK]”, on APC [2], the IC50 worked out at 70 µM and the IC90 came out at 300 µM. For the same substance, at APC [1], the inhibition at 500 µM was determined as 95% and the IC50 stood at 70 µM. The IC90 on APC [1] (final peptide concentration at which 90% inhibition of APC activity was observed, read-out: IC90) turned out to be 300 µM.
